Source: US10119168B2, “Methods for the treatment of kidney fibrosis” (priority 2014, dated 2018)

Experiments:
[1] = tested on: kidney fibrosis after FA injection in mice; experiment: Enalapril treatment in folic acid (FA) nephropathy model of kidney fibrosis (histology, qRT-PCR); type: in vivo, mouse; conditions: day 14
Protocol: Conversely, to test if the markers reflect recovery from fibrosis interventions on the renin-angiotensin system were used.
Mice were sacrificed at 1, 2, 3, 7 and 14 days following administration. […] All mice were sacrificed at 14 days.
(§1) Formalin fixed, paraffin embedded kidney sections were Masson Trichrome's stained and evaluated by a renal pathologist under a light microscope in blinded fashion relative to sample group. Percent area of fibrosis relative to the total section area was evaluated. Sirius red staining of the […] sections was performed at the Michigan State University Investigative Histopathology Laboratory.
(§2) Total RNA was extracted from frozen kidney tissue using TRIzol reagent (Invitrogen). Following RNA concentration measurement by NanoDrop spectrophotometer (Thermo Fischer Scientific), 1 μg RNA was used for cDNA preparation using QuantiTect Reverse Transcription Kit from Qiagen (Valencia, Calif.). qRT-PCR using QuantiFast SYBR Green PCR Kit (Qiagen) was performed in 384-well plates on an Applied Biosystems 7900HT Fast Real-Time PCR System instrument with the following temperature profile: 3 min enzyme activation at 95° C. followed by 40 cycles of 95° C. for 10 s, and 55° C. for 30 s. Primer pairs used are listed in Supplementary Table 1. Gapdh was used as reference gene for normalization. The SDS 2.4 software (Applied Biosystems) was used to compute the threshold cycle (Cq) and the relative expression for an mRNA was assessed using the 2^−ΔCq method.

[2] = tested on: mouse liver; experiment: ANIT diet liver fibrosis model (Picrosirius red staining, qRT-PCR); conditions: ANIT diet 4 weeks vs control diet
Description: Fibrosis is a universal pathological finding for chronic diseases in any organ(14) and it would be useful to identify biomarkers of fibrosis that are specific for an organ or be able to indicate their origin.
Animals were housed in an Association for Assessment and Accreditation of Laboratory Animal Care International-accredited facility at Michigan State University and all procedures were approved by the Michigan State University Institutional Animal Care and Use Committee.
as §1, §2

[3] = enalapril 200 mg/l in drinking water after FA injection, kidney qRT-PCR vs control

CCOC(=O)[C@H](CCc1ccccc1)N[C@@H](C)C(=O)N1CCC[C@H]1C(=O)O [enalapril]
kidney fibrosis development (histological assessment) ([1]; enalapril 200 mg/l continuously in drinking water after FA injection, vs plain water control): reduced kidney fibrosis development | reduction of collagen 1a1 mRNA expression ([1]; enalapril 200 mg/l in drinking water after FA injection, kidney qRT-PCR): ~3 fold | Cdh11 gene expression level [1, 3]: significant (p<0.05) decreases | Gabrp gene expression level [1, 3]: significant (p<0.05) decreases | Mrc1 gene expression level [1, 3]: significant (p<0.05) decreases | Scn7a gene expression level [1, 3]: significant (p<0.05) decreases | Smoc2 gene expression level [1, 3]: significant (p<0.05) decreases

S=C=Nc1cccc2ccccc12 [ANIT, α-naphthylisothiocyanate]
Mgp gene level [2]: significantly higher (p<0.05) gene levels | Scn7a gene level [2]: significantly higher (p<0.05) gene levels | Sytl2 gene level [2]: significantly higher (p<0.05) gene levels | collagen 1a1 gene expression [2]: significantly increased collagen 1a1 gene expression
